# Data from patent US12331056B2, “SHP2 phosphatase inhibitors and methods of use thereof” (Relay Therapeutics, Inc., priority 2018, dated 2025).
# Where a name gives a salt, the structure may show the parent alone.
# Biological target: T1, SHP2 (Homo sapiens, UniProt Q06124)
# T1 sequence (Q06124 1-593): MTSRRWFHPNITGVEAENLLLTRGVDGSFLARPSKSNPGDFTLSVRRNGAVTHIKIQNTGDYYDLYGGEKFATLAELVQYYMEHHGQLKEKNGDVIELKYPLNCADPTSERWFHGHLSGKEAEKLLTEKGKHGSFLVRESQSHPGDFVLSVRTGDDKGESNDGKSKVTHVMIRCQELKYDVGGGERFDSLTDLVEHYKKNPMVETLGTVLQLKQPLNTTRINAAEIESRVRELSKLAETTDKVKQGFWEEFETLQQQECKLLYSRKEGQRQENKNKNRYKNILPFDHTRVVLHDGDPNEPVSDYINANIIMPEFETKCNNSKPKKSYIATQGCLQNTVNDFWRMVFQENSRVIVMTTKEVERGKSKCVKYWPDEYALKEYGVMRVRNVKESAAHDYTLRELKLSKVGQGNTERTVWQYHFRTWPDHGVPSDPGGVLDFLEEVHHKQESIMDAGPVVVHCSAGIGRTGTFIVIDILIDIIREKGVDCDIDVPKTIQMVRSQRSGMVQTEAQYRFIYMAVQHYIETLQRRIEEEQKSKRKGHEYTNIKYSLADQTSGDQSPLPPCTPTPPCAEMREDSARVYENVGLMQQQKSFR
# Test: SHP2 allosteric inhibition assay (DiFMUP prompt fluorescence)
# Format: biochemical
# Settings: 0.25 nM SHP2 activated with 0.5 μM peptide IRS1_pY1172(dPEG8)pY1222; substrate DiFMUP 100 μM
row,SMILES,IC50 [nM]
1,"Cc1cnc2sc(N3CCC4(CC3)Cc3ccccc3[C@H]4N)nn12 [Example 293, (S)-1′-(5-methylimidazo[2,1-b][1,3,4]thiadiazol-2-yl)-1,3-dihydrospiro[indene-2,4′-piperidin]-1-amine]",< 50
2,"NC1c2ccccc2CC12CCC(c1cnc(SCC3CC3)cn1)CC2 (single isomer, unassigned) [Example 284, (1s, 1′R, 4S)-4-(5-((cyclopropylmethyl)thio)pyrazin-2-yl)-1′,3′-dihydrospiro[cyclohexane-1,2′-inden]-1′-amine]",50 to 1000
3,"N[C@@H]1c2ccccc2CC12CCN(c1ccc(SCC3CC3)nc1)CC2 [Example 272, (S)-1′-(6-((cyclopropylmethyl)thio)pyridin-3-yl)-1,3-dihydrospiro[indene-2,4′-piperidin]-1-amine formate]",< 50
4,"N[C@@H]1c2ccccc2C[C@]12CC[C@H](c1cnc(Sc3ccnc(Cl)c3Cl)cn1)CC2 (single isomer, unassigned) [Example 275, (1s, 3′S, 4R)-4-{5-[(2,3-dichloropyridin-4-yl)sulfanyl]pyrazin-2-yl}-1′,3′-dihydrospiro[cyclohexane-1,2′-inden]-3′-amine]",1000 to 10000
5,"N#Cc1cccc2c1CC1(CCN(c3cnc4c(N5CCCc6ncccc65)n[nH]c4n3)CC1)[C@H]2N (single isomer, unassigned) [Example 116]",1000 to 10000
6,"C[C@H](O)c1nc(Sc2ccnc(Cl)c2Cl)cnc1N1CCC2(CC1)Cc1ccccc1[C@H]2N (single isomer, unassigned) [Example 260]",> 10000
7,Nc1nccc(Sc2cnc(N3[C@@H]4CC[C@H]3C[C@]3(C4)Oc4ccccc4[C@H]3N)cn2)c1Cl [Example 232],< 50
8,"CC(C)Sc1cnc(N2CCC3(CC2)Cc2ccccc2[C@H]3N)cn1 [Example 248, (3S)-1′-[5-(propan-2-ylsulfanyl)pyrazin-2-yl]-1,3-dihydrospiro[indene-2,4′-piperidin]-3-amine]",< 50
9,"C[C@H](C(=O)N1CCC2(CC1)Cc1ccccc1[C@H]2N)c1ccc(F)cc1 (single isomer, unassigned) [Example 290]",< 50
10,"N[C@@H]1c2ccccc2C[C@]12CC[C@@H](c1cnc3c(N4CCCc5ncccc54)n[nH]c3n1)CC2 (single isomer, unassigned) [Example 191, (1r, 3′S, 4S)-4-[3-(1,2,3,4-tetrahydro-1,5-naphthyridin-1-yl)-1H-pyrazolo[3,4-b]pyrazin-6-yl]-1′,3′-dihydrospiro[cyclohexane-1,2′-inden]-3′-amine]",1000 to 10000
11,Cn1cnc2c(N3CCC4(CC3)Cc3ccccc3[C@H]4N)nccc21 [Example 184],50 to 1000
12,Nc1nccc(Sc2ncc(N3CCC4(CC3)Cc3ccccc3[C@H]4N)cn2)c1Cl [Example 63],50 to 1000
13,"Cc1nc(N2CCC3(CC2)Cc2ccccc2[C@@H]3N)c(CO)nc1-c1cccc(Cl)c1Cl (single isomer, unassigned) [Example 19]",50 to 1000
14,"N[C@H]1c2ccccc2CC12CCN(c1cnc3c(-c4ccnc(Cl)c4F)n[nH]c3n1)CC2 (single isomer, unassigned) [Example 66]",50 to 1000
15,N[C@@H]1c2ccccc2C[C@@]12C[C@H]1CC[C@@H](C2)N1c1cnc2c(N3CCCc4ncccc43)n[nH]c2n1 [Example 227],> 10000
16,Nc1nccc(Sc2cnc(N3[C@@H]4CC[C@H]3C[C@]3(Cc5ccccc5[C@H]3N)C4)cn2)c1Cl [Example 231],> 10000
